Reference: patent US8106055B2, “Substituted amide compounds” (Gruenenthal GmbH, priority 2007, dated 2012)

How the values were obtained:
[1] = molecular target: T1, serotonin (5-HT) reuptake (Rattus norvegicus, UniProt P31652); assay: Inhibition of serotonin (5HT) reuptake in synaptosomes from rat brain; assay type: biochemical; conditions: test concentration of 10 μM; for inhibition at 10 µM: read-out: 5-HT (inhibition of reuptake of serotonin, % inhibition)
T1 construct: synaptosomes are freshly isolated from areas of the rat brain; from tissue; host or cells: rat brain synaptosomes (P2 fraction)
T1 sequence (P31652 whole entry): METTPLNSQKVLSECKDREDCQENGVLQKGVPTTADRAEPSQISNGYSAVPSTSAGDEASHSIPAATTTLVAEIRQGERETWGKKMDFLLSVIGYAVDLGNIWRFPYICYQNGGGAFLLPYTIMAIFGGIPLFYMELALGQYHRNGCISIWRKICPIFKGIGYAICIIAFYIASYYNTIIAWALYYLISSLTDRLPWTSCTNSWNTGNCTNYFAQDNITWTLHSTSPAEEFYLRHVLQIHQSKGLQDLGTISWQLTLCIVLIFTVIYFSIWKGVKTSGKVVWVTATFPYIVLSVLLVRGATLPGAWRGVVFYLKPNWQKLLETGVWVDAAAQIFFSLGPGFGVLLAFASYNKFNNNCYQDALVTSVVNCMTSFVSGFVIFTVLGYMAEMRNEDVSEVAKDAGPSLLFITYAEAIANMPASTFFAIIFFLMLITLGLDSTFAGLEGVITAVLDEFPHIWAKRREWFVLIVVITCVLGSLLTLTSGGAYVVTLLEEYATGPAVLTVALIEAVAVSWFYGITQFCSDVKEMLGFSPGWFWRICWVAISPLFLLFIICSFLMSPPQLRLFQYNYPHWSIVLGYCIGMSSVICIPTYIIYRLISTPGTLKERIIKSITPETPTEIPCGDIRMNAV
In short: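 Freshly isolated rat brain synaptosomes (P2 fraction) used for 5-HT reuptake. Test compound at 10 μM, activity given as % inhibition.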

[2] = molecular target: T2, human bradykinin 1 receptor (B1R) (Homo sapiens, UniProt P46663); assay: Functional investigation on the human bradykinin 1 receptor (B1R), Ca2+ FLIPR assay in CHO K1 hB1R cells; assay type: cell-based; conditions: test substance 10 μM, Ca2+ FLIPR, CHO K1 hB1R cells; for inhibition at 10 µM: CHO-K1, B1R antagonism human, read-out: B1R Ant. h [10 μM] % Inhibition; for B1R Ant. h [10 μM] % Inhibition: B1R antagonism human
T2 construct: expressed in transfected cells; host or cells: CHO K1 cells
T2 sequence (P46663 1-353): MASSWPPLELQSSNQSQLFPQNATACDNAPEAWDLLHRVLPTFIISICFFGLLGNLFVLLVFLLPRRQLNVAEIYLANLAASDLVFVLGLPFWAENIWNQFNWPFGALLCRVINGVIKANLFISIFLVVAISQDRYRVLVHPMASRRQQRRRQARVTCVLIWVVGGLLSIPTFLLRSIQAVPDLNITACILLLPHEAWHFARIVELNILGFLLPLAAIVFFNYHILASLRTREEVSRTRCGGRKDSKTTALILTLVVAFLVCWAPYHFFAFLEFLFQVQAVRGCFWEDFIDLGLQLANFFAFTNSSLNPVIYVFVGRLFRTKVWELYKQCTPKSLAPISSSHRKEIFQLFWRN
In short: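 Stably transfected CHO K1 cells loaded with Fluo-4; FLIPR Ca2+ fluorescence peak (ex 488/em 540 nm). Compound added first (agonism vs Lys-Des-Arg9-bradykinin ≥50 nM human, Des-Arg9-bradykinin 10 μM rat), then after 10-20 min agonist at EC80; antagonism as % inhibition, IC50 from concentration series, n=2-3, N≥2.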

| Structure (SMILES) | inhibition at 10 µM [1] | inhibition at 10 µM [2] | 5-HT (inhibition of reuptake of serotonin, % inhibition) [1] | B1R Ant. h [10 μM] % Inhibition [2] |
| --- | --- | --- | --- | --- |
| COc1ccc(S(=O)(=O)N(C)CCOCC(=O)NCC2CCC(C(c3cccs3)N(C)C)CC2)cc1OC (centres unmarked) [Example 127, 2-(2-(3,4-Dimethoxy-N-methylphenylsulfonamido)ethoxy)-N-((4-((dimethylamino)(thiophen-2-yl)methyl)cyclohexyl)methyl)acetamide] | 79% | -13% | – | – |
| CN(C)C(c1cccs1)C1CCC(CNC(=O)COCC2CCCN(S(=O)(=O)c3ccccc3)C2)CC1 (centres unmarked) [Example 101, N-((4-((dimethylamino)(thiophen-2-yl)methyl)cyclohexyl)methyl)-2-((1-(phenylsulfonyl)piperidin-3-yl)methoxy)acetamide] | 94% | 0% | – | – |
| COc1ccc(S(=O)(=O)N2CCCC2COCC(=O)NCC2CCC(C(c3cccs3)N(C)C)CC2)cc1 (centres unmarked) [Example 105, N-((4-((dimethylamino)(thiophen-2-yl)methyl)cyclohexyl)methyl)-2-((1-(4-methoxyphenylsulfonyl)pyrrolidin-2-yl)methoxy)acetamide] | 95% | 33% | – | – |
| CN(C)C(c1cccc(F)c1)C1CCC(NC(=O)COC2CCCCC2N(C)S(=O)(=O)c2ccc(Cl)c(Cl)c2)CC1 (centres unmarked) [Example 132, 2-(2-(3,4-dichloro-N-methylphenylsulfonamido)cyclohexyloxy)-N-(4-((dimethylamino)(3-fluorophenyl)methyl)cyclohexyl)acetamide] | 83% | 40% | – | – |
| CN(C)C(c1ccccc1)C1CCC(CNC(=O)COCCN(C)S(=O)(=O)c2ccc(Cl)cc2)CC1 (centres unmarked) [Example 110, 2-(2-(4-chloro-N-methylphenylsulfonamido)ethoxy)-N-((4-((dimethylamino) (phenyl)methyl)cyclohexyl)methyl)acetamide] | 94% | 21% | – | – |
| CN(C)C(c1cccs1)C1CCC(CNC(=O)COCCN(Cc2ccccc2)S(=O)(=O)c2ccccc2)CC1 (centres unmarked) [Example 102, 2-(2-(N-benzylphenylsulfonamido)ethoxy)-N-((4-((dimethylamino)(thiophen-2-yl)methyl)cyclohexyl)methyl)acetamide] | 92% | -4% | – | – |
| COc1ccc(S(=O)(=O)N2CCCCC2COCC(=O)NCC2CCC(C(c3ccccc3)N(C)C)CC2)c(OC)c1 (centres unmarked) [Example 106, 2-((1-(2,4-dimethoxyphenylsulfonyl)piperidin-2-yl)methoxy)-N-((4-((dimethylamino)(phenyl)methyl)cyclohexyl)methyl)acetamide] | 85% | 4% | – | – |
| COc1ccc(S(=O)(=O)N(C)CCOCC(=O)NC2CCC(C(c3ccc(F)cc3)N(C)C)CC2)cc1 (centres unmarked) [Example 549] | – | – | 81% | 13% |
| CN(C)C(CCc1ccccc1)C1CCC(CNC(=O)COC2CCN(S(=O)(=O)c3ccc(F)cc3)C2)CC1 (centres unmarked) [Example 574] | – | – | 94% | 2% |
| COc1ccc(S(=O)(=O)N2CCCCC2CCOCC(=O)NC2CCC(C(c3cccs3)N(C)C)CC2)cc1 (centres unmarked) [Example 6, N-(4-((dimethylamino)(thiophen-2-yl)methyl)cyclohexyl)-2-(2-(1-(4-methoxyphenylsulfonyl)piperidin-2-yl)ethoxy)acetamide] | 91% | 24% | – | – |
| COc1cc(C)c(S(=O)(=O)N2CCCC(OCC(=O)NCCC3CCC(C(c4cccs4)N(C)C)CC3)C2)c(C)c1C (centres unmarked) [Example 130, N-(2-(4-((dimethylamino)(thiophen-2-yl)methyl)cyclohexyl)ethyl)-2-(1-(4-methoxy-2,3,6-trimethylphenylsulfonyl)piperidin-3-yloxy)acetamide] | 95% | 30% | – | – |
| COc1cc(C)c(S(=O)(=O)N(CCOCC(=O)NCC2CCC(C(CCc3ccccc3)N(C)C)CC2)Cc2ccccc2)c(C)c1C (centres unmarked) [Example 562] | – | – | 96% | 91% |
| Cc1cc(C)c(S(=O)(=O)N(C)CCOCC(=O)NCCC2CCC(C(c3cccc(F)c3)N(C)C)CC2)c(C)c1 (centres unmarked) [Example 587] | – | – | 86% | −14% |
| COc1cc(C)c(S(=O)(=O)N2CCC(OCC(=O)NCC3CCC(C(CCc4ccccc4)N(C)C)CC3)C2)c(C)c1 (centres unmarked) [Example 565] | – | – | 94% | 102% |
| CN(C)C(CCc1ccccc1)C1CCC(CNC(=O)COC2CCN(S(=O)(=O)c3ccccc3)CC2)CC1 (centres unmarked) [Example 578] | – | – | 94% | −14% |
| Cc1cc(C)c(S(=O)(=O)N(C)CCOCC(=O)NC2CCC(C(c3ccccc3)N(C)C)CC2)c(C)c1 (centres unmarked) [Example 63, N-(4-((dimethylamino)(phenyl)methyl)cyclohexyl)-2-(2-(N,2,4,6-tetramethylphenylsulfamido)ethoxy)acetamide] | – | – | 79% | 92% |
| CN(C)C(c1ccc(Cl)cc1)C1CCC(CCNC(=O)COCCN(C)S(=O)(=O)c2ccc(OC(F)(F)F)cc2)CC1 (centres unmarked) [Example 575] | – | – | 77% | −4% |
| COc1ccc(S(=O)(=O)N2Cc3ccccc3CC2COCC(=O)NCC2CCC(C(c3cccs3)N(C)C)CC2)cc1 (centres unmarked) [Example 7, N-((4-((dimethylamino)(thiophen-2-yl)methyl)cyclohexyl)methyl)-2-((2-(4-methoxyphenylsulfonyl)-1,2,3,4-tetrahydroisoquinolin-3-yl)methoxy)acetamide] | 92% | 47% | – | – |
| COc1ccc(S(=O)(=O)N(C)CCOCC(=O)NCCC2CCC(C(c3cccs3)N(C)C)CC2)cc1 (centres unmarked) [Example 128, N-(2-(4-((dimethylamino)(thiophen-2-yl)methyl)cyclohexyl)ethyl)-2-(2-(4-methoxy-N-methylphenylsulfonamido)ethoxy)acetamide] | 83% | 28% | – | – |
| COc1cc(C)c(S(=O)(=O)N(CCOCC(=O)NCCC2CCC(C(c3ccc(F)cc3)N(C)C)CC2)Cc2ccccc2)c(C)c1C (centres unmarked) [Example 554] | – | – | 92% | 23% |
| COc1ccc(S(=O)(=O)N2CCCCC2COCC(=O)NCCC2CCC(C(c3cccs3)N(C)C)CC2)cc1OC (centres unmarked) [Example 120, 2-((1-(3,4-dimethoxyphenylsulfonyl)piperidin-2-yl)methoxy)-N-(2-(4-((dimethylamino)(thiophen-2-yl)methyl)cyclohexyl)ethyl)acetamide] | 91% | -12% | – | – |
| COc1cc(C)c(S(=O)(=O)N(CCOCC(=O)NCC2CCC(C(c3ccc(Cl)cc3)N(C)C)CC2)Cc2ccccc2)c(C)c1C (centres unmarked) [Example 560] | – | – | 47% | 16% |
| CN(C)C(c1ccccc1)C1CCC(CNC(=O)COC2CCN(S(=O)(=O)c3cccc(C(F)(F)F)c3)C2)CC1 (centres unmarked) [Example 113, N-((4-((dimethylamino)(phenyl)methyl)cyclohexyl)methyl)-2-(1-(3-(trifluoromethyl)phenylsulfonyl)pyrrolidin-3-yloxy)acetamide] | 88% | -1% | – | – |
| CN(C)C(c1cccs1)C1CCC(CNC(=O)COCCN(C)S(=O)(=O)c2ccc(Cl)cc2Cl)CC1 (centres unmarked) [Example 8, 2-(2-(2,4-dichloro-N-methylphenylsulfonamido)ethoxy)-N-((4-((dimethylamino)(thiophen-2-yl)methyl)cyclohexyl)methyl)acetamide] | 81% | 101% | – | – |
| CCN(CCOCC(=O)NCCC1CCC(C(c2cccs2)N(C)C)CC1)S(=O)(=O)c1c(C)cc(OC)c(C)c1C (centres unmarked) [Example 103, N-(2-(4-((dimethylamino)(thiophen-2-yl)methyl)cyclohexyl)ethyl)-2-(2-(N-ethyl-4-methoxy-2,3,6-trimethylphenylsulfonamido)ethoxy)acetamide] | 95% | 90% | – | – |
| COc1ccc(S(=O)(=O)N(C)CCOCC(=O)NCC2CCC(C(CCc3ccccc3)N(C)C)CC2)cc1 (centres unmarked) [Example 550] | – | – | 74% | 62% |
| COc1cc(C)c(S(=O)(=O)N(C)CCOCC(=O)NC2CCC(C(c3cccs3)N(C)C)CC2)c(C)c1 (centres unmarked) [Example 111, N-(4-((dimethylamino)(thiophen-2-yl)methyl)cyclohexyl)-2-(2-(4-methoxy-N,2,6-trimethylphenylsulfonamido)ethoxy)acetamide] | 85% | 102% | – | – |
| CN(C)C(c1cccs1)C1CCC(CCNC(=O)COCCN(Cc2ccccc2)S(=O)(=O)c2ccccc2)CC1 (centres unmarked) [Example 116, 2-(2-(N-benzylphenylsulfonamido)ethoxy)-N-(2-(4-((dimethylamino)(thiophen-2-yl)methyl)cyclohexyl)ethyl)acetamide] | 97% | 28% | – | – |
